Data published in patent US20260217701A1, “SELECTIVE BET INHIBITORS AND USES THEREOF” (Tay Therapeutics Limited, priority 2022, published 2026).

Columns and labels:
[1] = biological target: T1, BRD4 BD1 (Homo sapiens, UniProt O60885); test: NanoBRET bromodomain assay, NanoLuc-BRD4-BD1 in HEK293 cells; assay type: binding
T1 construct: HEK293 cells were transfected using NanoLuc-BRD4-BD1 or NanoLuc-BRD4-BD2 fusion vectors
Method: Exemplary compounds of the disclosure are active against BRD4 BD2 and selective over BRD4 BD1. BRD4 is a representative example of the BET family, as the binding sites of all BET family members are structurally similar. […] IC50s and fold selectivity's are determined as described below and are represented in Table 1.
(§1) Plates were then incubated at 37° C.+5% CO2 incubator for 2 hours.
(§2) Fold Selectivity Calculated (IC50 BD1/IC50 BD2).

[2] = biological target: T2, BRD4 BD2 (Homo sapiens, UniProt O60885); test: NanoBRET bromodomain assay, NanoLuc-BRD4-BD2 in HEK293 cells; assay type: binding; details: for Fold Selectivity BRD4 BD1/BD2: IC50 BD1/IC50 BD2, qualitative if an IC50 is at the upper limit
T2 construct: HEK293 cells were transfected using NanoLuc-BRD4-BD1 or NanoLuc-BRD4-BD2 fusion vectors
Method: as §1, §2

| Structure (SMILES) | IC50 [1] [nM] | IC50 [2] [nM] | Fold Selectivity BRD4 BD1/BD2 [2] |
| --- | --- | --- | --- |
| Cc1cccc(C)c1Oc1cn(C)c(=O)cc1-c1cn(C)c(=O)c2[nH]c(-c3cc(F)c(F)cc3F)cc12 [Example 88] | > 1000 | 10 to 50 | xxx (Fold >200 and ≤1000) |
| CC(C)n1cc(-c2cc3c(-c4cc(=O)n(C)cc4-c4cccc(CN5CCOCC5)c4)cn(C)c(=O)c3[nH]2)cn1 [Example 78] | > 1000 | 10 to 50 | xxx (Fold >200 and ≤1000) |
| Cn1ccc(-c2cc3c(-c4cc(=O)n(C)cc4-c4ccccc4)cn(C)c(=O)c3[nH]2)cc1=O [Example 81] | > 1000 | 50 to 200 | xx (Fold >50 and ≤200) |
| Cc1cccc(C)c1Oc1cn(C)c(=O)cc1-c1cn(C)c(=O)c2[nH]c(-c3cnn(C(F)(F)F)c3)cc12 [Example 11, 4-(5-(2,6-dimethylphenoxy)-1-methyl-2-oxo-1,2-dihydropyridin-4-yl)-6-methyl-2-(1-(trifluoromethyl)-1H-pyrazol-4-yl)-1,6-dihydro-7H-pyrrolo[2,3-c]pyridin-7-one] | > 1000 | < 10 | xxxx (Fold >1000) |
| CC(C)n1cc(-c2cc3c(-c4cc(=O)n(C)cc4-c4cccc(CS(C)(=O)=O)c4)cn(C)c(=O)c3[nH]2)cn1 [Example 72] | > 1000 | 200 to 1000 | x (Fold >2 and ≤50) |
| Cc1nn(C2COC2)cc1-c1cc2c(-c3cc(=O)n(C)cc3-c3ccccc3)cn(C)c(=O)c2[nH]1 [Example 91] | > 1000 | 10 to 50 | xx (Fold >50 and ≤200) |
| Cn1cc(-c2cc(=O)n(CCO)cc2-c2ccccc2)c2cc(-c3cnn(C(F)(F)F)c3)[nH]c2c1=O [Example 60, 4-(1-(2-hydroxyethyl)-2-oxo-5-phenyl-1,2-dihydropyridin-4-yl)-6-methyl-2-(1-(trifluoromethyl)-1H-pyrazol-4-yl)-1,6-dihydro-7H-pyrrolo[2,3-c]pyridin-7-one] | > 1000 | 10 to 50 | xxx (Fold >200 and ≤1000) |
| CSCc1cccc(-c2cn(C)c(=O)cc2-c2cn(C)c(=O)c3[nH]c(-c4cnn(C(F)(F)F)c4)cc23)c1 [Example 25, 6-methyl-4-(1-methyl-5-(3-((methylthio)methyl)phenyl)-2-oxo-1,2-dihydropyridin-4-yl)-2-(1-(trifluoromethyl)-1H-pyrazol-4-yl)-1,6-dihydro-7H-pyrrolo[2,3-c]pyridin-7-one] | > 1000 | < 10 | xxxx (Fold >1000) |
| Cn1cc(-c2cc(=O)n(C3COC3)cc2-c2ccccc2)c2cc(-c3cnn(C(F)(F)F)c3)[nH]c2c1=O [Example 5, 6-methyl-4-(1-(oxetan-3-yl)-2-oxo-5-phenyl-1,2-dihydropyridin-4-yl)-2-(1-(trifluoromethyl)-1H-pyrazol-4-yl)-1,6-dihydro-7H-pyrrolo[2,3-c]pyridin-7-one] | > 1000 | 10 to 50 | xxx (Fold >200 and ≤1000) |
| CN1CCC(n2cc(-c3ccccc3)c(-c3cn(C)c(=O)c4[nH]c(-c5cnn(C(F)(F)F)c5)cc34)cc2=O)CC1 [Example 63, 6-methyl-4-(1-(1-methylpiperidin-4-yl)-2-oxo-5-phenyl-1,2-dihydropyridin-4-yl)-2-(1-(trifluoromethyl)-1H-pyrazol-4-yl)-1,6-dihydro-7H-pyrrolo[2,3-c]pyridin-7-one] | 500 to 1000 | < 10 | xx (Fold >50 and ≤200) |
| CC(C)n1cc(-c2cc3c(-c4cc(=O)n(C)cc4-c4cccc(OCCO)c4)cn(C)c(=O)c3[nH]2)cn1 [Example 75] | > 1000 | 200 to 1000 | x (Fold >2 and ≤50) |
| Cc1cccc(C)c1Oc1cn(C)c(=O)cc1-c1cn(C)c(=O)c2[nH]c(-c3cccc(CO)c3F)cc12 [Example 57, 4-(5-(2,6-dimethylphenoxy)-1-methyl-2-oxo-1,2-dihydropyridin-4-yl)-2-(2-fluoro-3-(hydroxymethyl)phenyl)-6-methyl-1,6-dihydro-7H-pyrrolo[2,3-c]pyridin-7-one] | > 1000 | < 10 | xxxx (Fold >1000) |
| Cc1cccc(C)c1Oc1cn(C)c(=O)cc1-c1cn(C)c(=O)c2[nH]c(-c3cnn(CC(F)(F)F)c3)cc12 [Example 13, 4-(5-(2,6-dimethylphenoxy)-1-methyl-2-oxo-1,2-dihydropyridin-4-yl)-6-methyl-2-(1-(2,2,2-trifluoroethyl)-1H-pyrazol-4-yl)-1,6-dihydro-7H-pyrrolo[2,3-c]pyridin-7-one] | > 1000 | 10 to 50 | xxx (Fold >200 and ≤1000) |
| Cc1cc(-c2cc3c(-c4cc(=O)n(C)cc4-c4ccc5c(c4)COC5)cn(C)c(=O)c3[nH]2)cc(C)n1.Cl [Example 33, 4-(5-(1,3-dihydroisobenzofuran-5-yl)-1-methyl-2-oxo-1,2-dihydropyridin-4-yl)-2-(2,6-dimethylpyridin-4-yl)-6-methyl-1,6-dihydro-7H-pyrrolo[2,3-c]pyridin-7-one hydrochloride] | > 1000 | < 10 | xxxx (Fold >1000) |

More lines, now with the values ahead:

| IC50 [1] [nM] | IC50 [2] [nM] | Fold Selectivity BRD4 BD1/BD2 [2] | Structure (SMILES) |
| --- | --- | --- | --- |
| > 1000 | < 10 | xxxx (Fold >1000) | Cc1cc(-c2cc3c(-c4cc(=O)n(C)cc4-c4ccc(F)cc4)cn(C)c(=O)c3[nH]2)cc(C)n1.Cl [Example 30, 2-(2,6-dimethylpyridin-4-yl)-4-(5-(4-fluorophenyl)-1-methyl-2-oxo-1,2-dihydropyridin-4-yl)-6-methyl-1,6-dihydro-7H-pyrrolo[2,3-c]pyridin-7-one hydrochloride] |
| 500 to 1000 | < 10 | xxx (Fold >200 and ≤1000) | Cn1cc(-c2ccccc2)c(-c2cn(C)c(=O)c3[nH]c(-c4ccc(F)c(C(C)(C)O)c4)cc23)cc1=O [Example 69] |
| > 1000 | > 1000 | — (Fold ≥0 and ≤2) | Cn1cc(-c2cccc(CN3CCNCC3)c2)c(-c2cn(C)c(=O)c3[nH]c(-c4cnn(C(F)(F)F)c4)cc23)cc1=O [Example 4, 6-methyl-4-(1-methyl-2-oxo-5-(3-(piperazin-1-ylmethyl)phenyl)-1,2-dihydropyridin-4-yl)-2-(1-(trifluoromethyl)-1H-pyrazol-4-yl)-1,6-dihydro-7H-pyrrolo[2,3-c]pyridin-7-one] |
| > 1000 | < 10 | xxxx (Fold >1000) | CSCc1ccc(-c2cn(C)c(=O)cc2-c2cn(C)c(=O)c3[nH]c(-c4cnn(C(F)(F)F)c4)cc23)cc1 [Example 24, 6-methyl-4-(1-methyl-5-(4-((methylthio)methyl)phenyl)-2-oxo-1,2-dihydropyridin-4-yl)-2-(1-(trifluoromethyl)-1H-pyrazol-4-yl)-1,6-dihydro-7H-pyrrolo[2,3-c]pyridin-7-one] |
| > 1000 | < 10 | xxxx (Fold >1000) | Cn1cc(-c2cccc(COC(F)(F)F)c2)c(-c2cn(C)c(=O)c3[nH]c(-c4cnn(C(F)(F)F)c4)cc23)cc1=O [Example 17, 6-methyl-4-(1-methyl-2-oxo-5-(3-((trifluoromethoxy)methyl)phenyl)-1,2-dihydropyridin-4-yl)-2-(1-(trifluoromethyl)-1H-pyrazol-4-yl)-1,6-dihydro-7H-pyrrolo[2,3-c]pyridin-7-one] |
| > 1000 | 10 to 50 | xxx (Fold >200 and ≤1000) | Cn1cc(-c2cccnc2)c(-c2cn(C)c(=O)c3[nH]c(-c4ccc(F)cc4F)cc23)cc1=O [Example 37, 2-(2,4-difluorophenyl)-6-methyl-4-(1-methyl-6-oxo-1,6-dihydro-[3,3′-bipyridin]-4-yl)-1,6-dihydro-7H-pyrrolo[2,3-c]pyridin-7-one] |
| > 1000 | 10 to 50 | xx (Fold >50 and ≤200) | COCCOc1cccc(-c2cn(C)c(=O)cc2-c2cn(C)c(=O)c3[nH]c(-c4cnn(C(C)C)c4)cc23)c1 [Example 74] |
| > 1000 | < 10 | xxxx (Fold >1000) | CCn1cc(-c2cc(=O)n(C)cc2-c2ccccc2)c2cc(-c3cnn(C(F)(F)F)c3)[nH]c2c1=O [Example 19, 6-ethyl-4-(1-methyl-2-oxo-5-phenyl-1,2-dihydropyridin-4-yl)-2-(1-(trifluoromethyl)-1H-pyrazol-4-yl)-1,6-dihydro-7H-pyrrolo[2,3-c]pyridin-7-one] |
| > 1000 | < 10 | xxxx (Fold >1000) | Cn1cc(-c2cc(=O)n(C3CC3)cc2-c2ccccc2)c2cc(-c3ccccc3F)[nH]c2c1=O [Example 47, 4-(1-cyclopropyl-2-oxo-5-phenyl-1,2-dihydropyridin-4-yl)-2-(2-fluorophenyl)-6-methyl-1,6-dihydro-7H-pyrrolo[2,3-c]pyridin-7-one] |
| 500 to 1000 | 50 to 200 | x (Fold >2 and ≤50) | Cn1cc(-c2cc(=O)n(C3CC(O)C3)cc2-c2ccccc2)c2cc(-c3cnn(C(F)(F)F)c3)[nH]c2c1=O (stereo not drawn) [Example 64, 4-(1-(3-hydroxycyclobutyl)-2-oxo-5-phenyl-1,2-dihydropyridin-4-yl)-6-methyl-2-(1-(trifluoromethyl)-1H-pyrazol-4-yl)-1,6-dihydro-7H-pyrrolo[2,3-c]pyridin-7-one] |
| > 1000 | < 10 | xxxx (Fold >1000) | Cn1cc(-c2cc(=O)n(C3CC3)cc2-c2ccccc2)c2cc(-c3cccc(F)c3F)[nH]c2c1=O [Example 48, 4-(1-cyclopropyl-2-oxo-5-phenyl-1,2-dihydropyridin-4-yl)-2-(2,3-difluorophenyl)-6-methyl-1,6-dihydro-7H-pyrrolo[2,3-c]pyridin-7-one] |
